Consider 1 compound from US20020094988A1, “Method of treating erectile dysfunction” (priority 1999, published 2002).

Structures can show the parent of a compound that is named as a salt.

In the experiment the test system is person with erectile dysfunction. As to the kind of experiment: Erectile strength rated on a unilinear scale of 1 to 10 in treated patients. It is filed as in vivo, human. The text has this:
Subsequent discontinuation of Pavabid and Trental and placed on Viagra alone.

On to `CCCc1nn(C)c2c(=O)[nH]c(-c3cc(S(=O)(=O)N4CCN(C)CC4)ccc3OCC)nc12` [Viagra, sildenafil citrate], for which the erectile strength by setting is: (Example 1: person, rated 3 before treatment) 7; (Example 2: person, rated 2 prior to treatment) 6.
